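Each compound was tested at five concentrations against cells in 96-well plates for 48 hours. GI50 marks 50% less growth.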 Calls of active or inactive are those of the source. No stated cut-off is given here; in the data, active = GI50 up to about 1.1 µM and inactive = higher.
Assays:
Test in all cases: growth of human tumour cells (NCI), 48 h
U-251 = test system: U-251
SNB-19 = test system: SNB-19
UO-31 = test system: UO-31
NCI-H226 = test system: NCI-H226
NCI-H23 = test system: NCI-H23
CAKI-1 = test system: CAKI-1
NCI/ADR-RES = test system: NCI/ADR-RES
SK-MEL-28 = test system: SK-MEL-28
HOP-92 = test system: HOP-92
OVCAR-3 = test system: OVCAR-3
T47D = test system: T47D
SF-539 = test system: SF-539
KM12 = test system: KM12
786-0 = test system: 786-0
HCT-116 = test system: HCT-116
HL-60 = test system: HL-60
RXF 393 = test system: RXF 393
RPMI-8226 = test system: RPMI-8226
Hs-578T = test system: Hs-578T

| SMILES | GI50 (U-251) | GI50 (SNB-19) | GI50 (UO-31) | GI50 (NCI-H226) | GI50 (NCI-H23) | GI50 (CAKI-1) | GI50 (NCI/ADR-RES) | GI50 (SK-MEL-28) | GI50 (HOP-92) | GI50 (OVCAR-3) | GI50 (T47D) | GI50 (SF-539) | GI50 (KM12) | GI50 (786-0) | GI50 (HCT-116) | GI50 (HL-60) | GI50 (RXF 393) | GI50 (RPMI-8226) | GI50 (Hs-578T) |
| --- | --- | --- | --- | --- | --- | --- | --- | --- | --- | --- | --- | --- | --- | --- | --- | --- | --- | --- | --- |
| O=C1/C(=C\c2cccc(Oc3ccccc3)c2)S(=O)(=O)C(c2ccccc2)N1c1ccc(Cl)cc1 (configuration not stated) | 16 µM (inactive) | 25.1 µM (inactive) | 13.7 µM (inactive) | 43.1 µM (inactive) | 24.9 µM (inactive) | 13.2 µM (inactive) | 17.3 µM (inactive) | 17.8 µM (inactive) | 14 µM (inactive) | 14.4 µM (inactive) | 5.55 µM (inactive) | 23.7 µM (inactive) | 24 µM (inactive) | 14 µM (inactive) | 13.9 µM (inactive) | 13.2 µM (inactive) | 14.7 µM (inactive) | 12.3 µM (inactive) |  |
| C=C(C)C(=O)O[C@@H]1C/C(C)=C\[C@H](OC(C)=O)C[C@](C)(O)/C=C2/OC(=O)C(COC(C)=O)=C21 | 1.09 µM (active) | 12.3 µM (inactive) | 1.63 µM (inactive) | 1.91 µM (inactive) | 1.77 µM (inactive) | 0.329 µM (active) |  | 0.251 µM (active) | 0.437 µM (active) | 0.726 µM (active) | 0.834 µM (active) | 1.28 µM (inactive) | 6.32 µM (inactive) | 1.09 µM (active) | 0.394 µM (active) | 0.013 µM (active) | 0.304 µM (active) | 0.314 µM (active) | 2.15 µM (inactive) |
| CCN(CC)C(=S)SS(C)(=O)=O | 17.7 µM (inactive) | 23.9 µM (inactive) | 19 µM (inactive) | 14.8 µM (inactive) | 19.9 µM (inactive) | 22.4 µM (inactive) |  |  | 30.6 µM (inactive) |  |  | 22 µM (inactive) | 17.1 µM (inactive) | 19.2 µM (inactive) | 26.4 µM (inactive) | 5.12 µM (inactive) | 11 µM (inactive) |  |  |
| Cc1cc(-c2ccc(C(=O)O)[nH]2)on1 | 65.6 µM (inactive) | 61.4 µM (inactive) | 55.6 µM (inactive) |  | 69 µM (inactive) | 79.1 µM (inactive) | 24.9 µM (inactive) | > 100 µM (inactive) | 66.7 µM (inactive) | 32.4 µM (inactive) |  |  | > 100 µM (inactive) | 51.4 µM (inactive) | 29.2 µM (inactive) |  | 74.8 µM (inactive) | 62.7 µM (inactive) | 49.2 µM (inactive) |
| CCOC(=O)C1CC(O)C(=O)N1C (configuration not stated) | > 100 µM (inactive) | > 100 µM (inactive) | > 100 µM (inactive) | > 100 µM (inactive) | > 100 µM (inactive) | > 100 µM (inactive) |  | > 100 µM (inactive) | > 100 µM (inactive) | > 100 µM (inactive) | > 100 µM (inactive) | > 100 µM (inactive) |  | > 100 µM (inactive) | > 100 µM (inactive) | > 100 µM (inactive) | > 100 µM (inactive) | > 100 µM (inactive) |  |
| COc1ccc(C2=NNC(c3cc4cc(Br)ccc4nc3Cl)C2)cc1 (configuration not stated) |  |  | 13.1 µM (inactive) | 0.0107 µM (active) | 15.4 µM (inactive) | 12.6 µM (inactive) |  | 15.5 µM (inactive) | > 25 µM (inactive) | 18.2 µM (inactive) | 0.0887 µM (active) |  | 22.9 µM (inactive) | 15.9 µM (inactive) | 10.5 µM (inactive) | 6.19 µM (inactive) |  | 5.74 µM (inactive) | 0.0129 µM (active) |
| CC(=O)CCC[C@H](C)[C@@H](O)[C@@H]1O[C@H]([C@@]2(C)CCC(=O)O2)C[C@H]1C(=O)O | > 100 µM (inactive) | > 100 µM (inactive) | > 100 µM (inactive) | > 100 µM (inactive) | > 100 µM (inactive) | > 100 µM (inactive) | > 100 µM (inactive) | > 100 µM (inactive) |  | > 100 µM (inactive) | > 100 µM (inactive) | > 100 µM (inactive) | > 100 µM (inactive) | > 100 µM (inactive) | > 100 µM (inactive) |  | > 100 µM (inactive) | > 100 µM (inactive) | > 100 µM (inactive) |
| c1ccc(COc2ccc(CC3SCCCS3)cc2)cc1 |  | > 100 µM (inactive) |  |  |  | 62.7 µM (inactive) |  | > 100 µM (inactive) | 17.8 µM (inactive) | > 100 µM (inactive) | 49.7 µM (inactive) |  |  |  | > 100 µM (inactive) | 23.2 µM (inactive) |  | 50.2 µM (inactive) |  |
| Cc1ccc(C2=Nc3c(N)nc(N)nc3NC(c3ccccc3)C2)cc1 (configuration not stated) | 12.8 µM (inactive) | 14.2 µM (inactive) | 11.5 µM (inactive) | 14.4 µM (inactive) | 11.1 µM (inactive) | 14 µM (inactive) | 3.97 µM (inactive) | 14.4 µM (inactive) | 11.7 µM (inactive) | 11.5 µM (inactive) | 13.1 µM (inactive) | 12 µM (inactive) |  | 13.2 µM (inactive) | 4.11 µM (inactive) |  | 7.36 µM (inactive) | 4.84 µM (inactive) | 14 µM (inactive) |
